According to US9267949B2, “Alkylamino BODIPY dyes as selective fluorescent probes for proteins and mouse embryonic stem cells” (National University of Singapore, priority 2011, dated 2016):

Experiment: Spectroscopic properties of the BDM library (absorbance and emission maxima)
Format: physicochemical
Details: not given

Row | SMILES | λmax (ABS) [nm] | λmax (EM) [nm]
1 | CC1=CC(/C=C/c2ccc(N(C)C)cc2[N+](=O)[O-])=[N+]2C1=C(CCN)c1cccn1[B-]2(F)F [BDM-78] | 591 | –
2 | CC1=CC(/C=C/c2ccc3c(c2)OCO3)=[N+]2C1=C(CCN)c1cccn1[B-]2(F)F [BDM-139] | 564 | 584
3 | COc1ccc(/C=C/C2=[N+]3C(=C(CCN)c4cccn4[B-]3(F)F)C(C)=C2)c(F)c1 [BDM-359] | 559 | 574
4 | CC1=CC(/C=C/c2ccccc2Cl)=[N+]2C1=C(CCN)c1cccn1[B-]2(F)F [BDM-207] | 553 | 566
5 | COc1cccc(Oc2ccc(/C=C/C3=[N+]4C(=C(CCN)c5cccn5[B-]4(F)F)C(C)=C3)cc2)c1 [BDM-298] | 559 | 568
6 | COc1cc(/C=C/C2=[N+]3C(=C(CCN)c4cccn4[B-]3(F)F)C(C)=C2)ccc1F [BDM-312] | 557 | 568
7 | CC1=CC(/C=C/c2c3ccccc3c(C)c3ccccc23)=[N+]2C1=C(CCN)c1cccn1[B-]2(F)F [BDM-340] | 534 | 541
8 | CC1=CC(/C=C/c2ccc(OC(F)F)cc2)=[N+]2C1=C(CCN)c1cccn1[B-]2(F)F [BDM-326] | 554 | 565
9 | CC1=CC(/C=C/c2ccc3ccccc3c2)=[N+]2C1=C(CCN)c1cccn1[B-]2(F)F [BDM-137] | 563 | 575
10 | CC1=CC(/C=C/c2cccc(I)c2)=[N+]2C1=C(CCN)c1cccn1[B-]2(F)F [BDM-303] | 555 | 566
11 | COc1cc(OC)c(/C=C/C2=[N+]3C(=C(CCN)c4cccn4[B-]3(F)F)C(C)=C2)cc1Br [BDM-247] | 571 | 599
12 | CC1=CC(/C=C/c2cc3ccccc3c3ccccc23)=[N+]2C1=C(CCN)c1cccn1[B-]2(F)F [BDM-440] | 563 | 589
13 | CSc1ccc(/C=C/c2cc(C)c3n2[B-](F)(F)[N+]2=CC=CC2=C3CCN)cc1 [BDM-18] | 567 | 588
14 | COc1ccc(/C=C/C2=[N+]3C(=C(CCN)c4cccn4[B-]3(F)F)C(C)=C2)cc1Br [BDM-260] | 564 | 582
15 | COc1ccc(Oc2cccc(/C=C/c3cc(C)c4n3[B-](F)(F)[N+]3=CC=CC3=C4CCN)c2)cc1 [BDM-42] | 554 | 563
16 | CC1=CC(/C=C/c2cccc(N3CCCCC3)c2[N+](=O)[O-])=[N+]2C1=C(CCN)c1cccn1[B-]2(F)F [BDM-356] | 573 | 682
17 | COc1cc(/C=C/C2=[N+]3C(=C(CCN)c4cccn4[B-]3(F)F)C(C)=C2)cc(OC)c1 [BDM-209] | 555 | 567
18 | Cc1cc(/C=C/c2cc(C)c3n2[B-](F)(F)[N+]2=CC=CC2=C3CCN)cc(C)c1OCc1ccccc1 [BDM-16] | 561 | 574
19 | Cc1cc(/C=C/c2ccc(-c3ccccc3)cc2)n2c1C(CCN)=C1C=CC=[N+]1[B-]2(F)F [BDM-5] | 561 | 575
20 | CC1=CC(/C=C/c2ccc3c4c(cccc24)CC3)=[N+]2C1=C(CCN)c1cccn1[B-]2(F)F [BDM-89] | 576 | 612
21 | Cc1cc(/C=C/c2ccc(-c3cccs3)s2)n2c1C(CCN)=C1C=CC=[N+]1[B-]2(F)F [BDM-30] | 596 | 634
22 | COc1ccc(/C=C/C2=[N+]3C(=C(CCN)c4cccn4[B-]3(F)F)C(C)=C2)c(O)c1 [BDM-192] | 574 | 605
23 | CCOc1cc(/C=C/C2=[N+]3C(=C(CCN)c4cccn4[B-]3(F)F)C(C)=C2)ccc1O [BDM-397] | 570 | 614
24 | CC1=CC(/C=C/c2cccc(O)c2)=[N+]2C1=C(CCN)c1cccn1[B-]2(F)F [BDM-105] | 556 | 567
25 | CC1=CC(/C=C/c2ccc(SC(F)(F)F)cc2)=[N+]2C1=C(CCN)c1cccn1[B-]2(F)F [BDM-363] | 553 | 564
26 | COc1ccc2c(OC)ccc(/C=C/C3=[N+]4C(=C(CCN)c5cccn5[B-]4(F)F)C(C)=C3)c2c1 [BDM-70] | 582 | 642
27 | CC1=CC(/C=C/c2cccc(N3CCCC3)c2[N+](=O)[O-])=[N+]2C1=C(CCN)c1cccn1[B-]2(F)F [BDM-357] | 585 | 687
28 | CC1=CC(/C=C/c2ccc(OCc3ccc(F)cc3)cc2)=[N+]2C1=C(CCN)c1cccn1[B-]2(F)F [BDM-378] | 563 | 585
29 | COc1cc(/C=C/C2=[N+]3C(=C(CCN)c4cccn4[B-]3(F)F)C(C)=C2)cc(Br)c1OC [BDM-259] | 559 | 573
30 | COc1ccc(Oc2ccc(/C=C/C3=[N+]4C(=C(CCN)c5cccn5[B-]4(F)F)C(C)=C3)cc2)cc1 [BDM-178] | 561 | 577

Experiment: Quantum yield measurements
Format: physicochemical
Details: referred to Rhodamine B in EtOH, excitation 510 nm, emission integrated 540-800 nm
Procedure: Quantum yields were calculated by measuring the integrated emission area of the fluorescent spectra, and referring them to the area measured for Rhodamine B in EtOH after excitation at 510 nm (ΦRho-B=0.70). Quantum yields for the BDM products were then calculated using equation below, where F represents the area of fluorescent emission, n is reflective index of the solvent, and Abs is absorbance at excitation wavelength selected for standards and samples. Emission was integrated from 540 nm to 800 nm.

Row | SMILES | φ (quantum yield)
31 | CC1=CC(/C=C/c2ccc(N(C)C)cc2[N+](=O)[O-])=[N+]2C1=C(CCN)c1cccn1[B-]2(F)F [BDM-78] | 0.01
32 | CC1=CC(/C=C/c2ccc3c(c2)OCO3)=[N+]2C1=C(CCN)c1cccn1[B-]2(F)F [BDM-139] | 0.55
33 | COc1ccc(/C=C/C2=[N+]3C(=C(CCN)c4cccn4[B-]3(F)F)C(C)=C2)c(F)c1 [BDM-359] | 0.83
34 | CC1=CC(/C=C/c2ccccc2Cl)=[N+]2C1=C(CCN)c1cccn1[B-]2(F)F [BDM-207] | 0.24
35 | COc1cccc(Oc2ccc(/C=C/C3=[N+]4C(=C(CCN)c5cccn5[B-]4(F)F)C(C)=C3)cc2)c1 [BDM-298] | 0.32
36 | COc1cc(/C=C/C2=[N+]3C(=C(CCN)c4cccn4[B-]3(F)F)C(C)=C2)ccc1F [BDM-312] | 0.18
37 | CC1=CC(/C=C/c2c3ccccc3c(C)c3ccccc23)=[N+]2C1=C(CCN)c1cccn1[B-]2(F)F [BDM-340] | 0.11
38 | CC1=CC(/C=C/c2ccc(OC(F)F)cc2)=[N+]2C1=C(CCN)c1cccn1[B-]2(F)F [BDM-326] | 0.71
39 | CC1=CC(/C=C/c2ccc3ccccc3c2)=[N+]2C1=C(CCN)c1cccn1[B-]2(F)F [BDM-137] | 0.28
40 | CC1=CC(/C=C/c2cccc(I)c2)=[N+]2C1=C(CCN)c1cccn1[B-]2(F)F [BDM-303] | 0.31
41 | COc1cc(OC)c(/C=C/C2=[N+]3C(=C(CCN)c4cccn4[B-]3(F)F)C(C)=C2)cc1Br [BDM-247] | 0.54
42 | CC1=CC(/C=C/c2cc3ccccc3c3ccccc23)=[N+]2C1=C(CCN)c1cccn1[B-]2(F)F [BDM-440] | 0.37
43 | CSc1ccc(/C=C/c2cc(C)c3n2[B-](F)(F)[N+]2=CC=CC2=C3CCN)cc1 [BDM-18] | 0.33
44 | COc1ccc(/C=C/C2=[N+]3C(=C(CCN)c4cccn4[B-]3(F)F)C(C)=C2)cc1Br [BDM-260] | 0.05
45 | COc1ccc(Oc2cccc(/C=C/c3cc(C)c4n3[B-](F)(F)[N+]3=CC=CC3=C4CCN)c2)cc1 [BDM-42] | 0.25
46 | CC1=CC(/C=C/c2cccc(N3CCCCC3)c2[N+](=O)[O-])=[N+]2C1=C(CCN)c1cccn1[B-]2(F)F [BDM-356] | 0.03
47 | COc1cc(/C=C/C2=[N+]3C(=C(CCN)c4cccn4[B-]3(F)F)C(C)=C2)cc(OC)c1 [BDM-209] | 0.38
48 | Cc1cc(/C=C/c2cc(C)c3n2[B-](F)(F)[N+]2=CC=CC2=C3CCN)cc(C)c1OCc1ccccc1 [BDM-16] | 0.14
49 | Cc1cc(/C=C/c2ccc(-c3ccccc3)cc2)n2c1C(CCN)=C1C=CC=[N+]1[B-]2(F)F [BDM-5] | 0.50
50 | CC1=CC(/C=C/c2ccc3c4c(cccc24)CC3)=[N+]2C1=C(CCN)c1cccn1[B-]2(F)F [BDM-89] | 0.30
51 | Cc1cc(/C=C/c2ccc(-c3cccs3)s2)n2c1C(CCN)=C1C=CC=[N+]1[B-]2(F)F [BDM-30] | 0.11
52 | COc1ccc(/C=C/C2=[N+]3C(=C(CCN)c4cccn4[B-]3(F)F)C(C)=C2)c(O)c1 [BDM-192] | 0.20
53 | CCOc1cc(/C=C/C2=[N+]3C(=C(CCN)c4cccn4[B-]3(F)F)C(C)=C2)ccc1O [BDM-397] | 0.10
54 | CC1=CC(/C=C/c2cccc(O)c2)=[N+]2C1=C(CCN)c1cccn1[B-]2(F)F [BDM-105] | 0.18
55 | CC1=CC(/C=C/c2ccc(SC(F)(F)F)cc2)=[N+]2C1=C(CCN)c1cccn1[B-]2(F)F [BDM-363] | 0.51
56 | COc1ccc2c(OC)ccc(/C=C/C3=[N+]4C(=C(CCN)c5cccn5[B-]4(F)F)C(C)=C3)c2c1 [BDM-70] | 0.13
57 | CC1=CC(/C=C/c2cccc(N3CCCC3)c2[N+](=O)[O-])=[N+]2C1=C(CCN)c1cccn1[B-]2(F)F [BDM-357] | 0.04
58 | CC1=CC(/C=C/c2ccc(OCc3ccc(F)cc3)cc2)=[N+]2C1=C(CCN)c1cccn1[B-]2(F)F [BDM-378] | 0.41
59 | COc1cc(/C=C/C2=[N+]3C(=C(CCN)c4cccn4[B-]3(F)F)C(C)=C2)cc(Br)c1OC [BDM-259] | 0.35
60 | COc1ccc(Oc2ccc(/C=C/C3=[N+]4C(=C(CCN)c5cccn5[B-]4(F)F)C(C)=C3)cc2)cc1 [BDM-178] | 0.37
